Assay results reported in patent US10631541B1, “Nitrogen-15 isotope as a plant growth regulator” (Floratine Products Group, Inc, priority 2016, dated 2020).

Legend:
Annual Rye = assay: Laboratory trial: Annual Rye seeds in trays of potting soil, sprayed every other day; type: in vivo; details: averages of 74 plants per tray after 1 week; for Root Length, percent inc (versus sugar solution): increase over sugar solution (2.9 cm); for Blade Length, percent increase (versus sugar solution): increase over sugar solution (6.3 cm); for Blade Length / Root Length: ingredient added to standard sugar solution (Ni 0.003% w/w, Co 0.003% w/w, nitrogen-15 0.00001% w/w), spray 12 ml per square meter every other day
Procedure: Some characteristics of the plant growth regulating composition according to the invention are illustrated by the following examples. The laboratory trial involved planting Annual Rye seeds in trays of commercially available potting soil. The seed density on the trays was 358 grams per square meter. The volume of each spray was 12 ml per square meter after the grass emerged. The spray frequency was every other day. The following ingredients were added at these concentrations to a standard sugar solution: Ni 0.003% w/w (Nickel), Co 0.003% w/w (cobalt) and nitrogen-15 0.00001% w/w.

Common Bermuda = assay: Trial on turf, sprayed once with nitrogen-15 spray solutions; type: in vivo
Procedure: A trial on turf was conducted on Common Bermuda. The turf was sprayed once with spray solutions that contained four concentrations of nitrogen-15 ammonium sulfate. The concentrations ranged from: 0.001% though 0.004% w/w. The nitrogen-15 was mixed with a sugar solution as in the laboratory trial.

| Compound | Root Length, percent inc (versus sugar solution) (Annual Rye) | Blade Length, percent increase (versus sugar solution) (Annual Rye) | Blade Length (Annual Rye) | Root Length (Annual Rye) | visual color of turf plot (Common Bermuda; plot sprayed once with 0.004% w/w in sugar solution, four concentrations 0.001% through 0.004% w/w compared) | Percent increase in leaf length (Common Bermuda; turf sprayed once, 0.001% through 0.004% w/w in sugar solution) |
| --- | --- | --- | --- | --- | --- | --- |
| [Co] [Co, cobalt] | 41.40% | 11.10% | 7.0 cm | 4.1 cm |  |  |
| [Ni] [Ni, Nickel] | 41.40% | 15.90% | 7.3 cm | 4.1 cm |  |  |
| O=S(=O)(O)O.[15NH3].[15NH3] [nitrogen-15 ammonium sulfate] |  |  |  |  | darkest green | the same as the laboratory trial |
| Nitrogen-15 | 20.70% | 25.40% | 7.9 cm | 3.5 cm |  |  |
